From US20060069132A1, “Azolecarboxamide herbicides” (priority 2004, published 2006)

What was measured:
bermudagrass = test: Test C pre-/postemergence herbicide test; assay type: in vivo, Cynodon dactylon
Summary of the method: (§1)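 Preemergence: seeds planted and treated with compound in non-phytotoxic solvent with surfactant; postemergence: plants at 2 to 18 cm (1- to 4-leaf stage) sprayed likewise. Kept in greenhouse 12 to 14 days, then visually rated against controls, 0 (no effect) to 100 (complete control).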

morningglory = test: Test A pre-/postemergence herbicide test; assay type: in vivo, Ipomoea spp.
Summary of the method: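 Sandy loam soil given preemergence directed spray; plants at 2 to 10 cm, one- to two-leaf stage, sprayed to runoff postemergence, compounds in non-phytotoxic solvent with surfactant. Injury rated visually versus untreated controls after about ten greenhouse days, 0 (no effect) to 100 (complete control); dash means not tested.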

barnyardgrass = test: Test C flooded paddy test; assay type: in vivo, Echinochloa crus-galli; settings: for Plant response rating, Barnyardgrass: visual rating after 12 to 14 days
Summary of the method: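 Postemergence sprays applied to plants 2 to 18 cm tall (1- to 4-leaf stage); paddy species grown to 2-leaf stage under flooding. After 12 to 14 days in greenhouse, visual rating versus untreated controls on 0–100 scale (0 no effect, 100 complete control).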

velvetleaf = test: Test C pre-/postemergence herbicide test; assay type: in vivo, Abutilon theophrasti; settings: for Velvetleaf plant response rating: 500 g ai/ha
Summary of the method: as §1

yellow nutsedge = test: Test C pre-/postemergence herbicide test; assay type: in vivo, Cyperus esculentus; settings: for Nutsedge, Yellow plant response rating: 500 g ai/ha
Summary of the method: as §1

[1] = test system: common (oilseed) sunflower; test: Test C pre-/postemergence herbicide test; assay type: in vivo, Helianthus annuus
Summary of the method: as §1

woolly cupgrass = test: Test C pre-/postemergence herbicide test; assay type: in vivo, Eriochloa villosa; settings: for Cupgrass, Woolly plant response rating: 500 g ai/ha
Summary of the method: as §1

giant foxtail = test: Test C pre-/postemergence herbicide test; assay type: in vivo, Setaria faberi; settings: for Foxtail, Giant plant response rating: 500 g ai/ha
Summary of the method: as §1

[2] = 125 g ai/ha, scale 0-100, preemergence
[3] = 250 g ai/ha, scale 0 to 100 (0 no effect, 100 complete control), visual, 12 to 14 days, preemergence
[4] = Postemergence, 125 g ai/ha, scale 0 to 100, 0 no effect, 100 complete control
[5] = Preemergence, 500 g ai/ha, scale 0 to 100, 0 no effect, 100 complete control
[6] = postemergence, 62 g ai/ha, scale 0 to 100
[7] = 62 g ai/ha, scale 0 to 100 (0 no effect, 100 complete control)
[8] = 500 g ai/ha, scale 0 to 100 (0 no effect, 100 complete control)
[9] = Postemergence, 250 g ai/ha, scale 0 to 100, 0 no effect, 100 complete control
[10] = Preemergence, scale 0 to 100, 0 no effect, 100 complete control
[11] = postemergence, 125 g ai/ha, scale 0 to 100
[12] = 125 g ai/ha, scale 0 (no effect) to 100 (complete control), visual, 12 to 14 days, preemergence
[13] = 250 g ai/ha, scale 0-100, preemergence
[14] = 62 g ai/ha, preemergence, scale 0 to 100

Question: What does the source list for `CCNC(=O)c1cccc(NC(=O)c2cc(C(C)(C)C)nn2CC(F)(F)F)c1` [Compound 31]?
Answer: Plant response rating (0 = no effect, 100 = complete control), Bermudagrass (bermudagrass; 62 g ai/ha, preemergence): 20; Plant response rating, Bermudagrass (bermudagrass; [2]): 90; Plant response rating, Bermudagrass (bermudagrass; [3]): 100; Bermudagrass plant response rating (bermudagrass; Postemergence, 500 g ai/ha, scale 0 to 100): 40; Plant response rating, Bermudagrass (bermudagrass; [4]): 20; Bermudagrass plant response rating (bermudagrass; Postemergence, 250 g ai/ha, scale 0 to 100): 20; Bermudagrass plant response rating (bermudagrass; [5]): 100; Plant response rating, Bermudagrass (bermudagrass; [6]): 10; Morningglory plant response rating (morningglory; Postemergence, 250 g ai/ha, 0 to 100 scale, 0 no effect, 100 complete control): 5; Plant response rating, Morningglory (morningglory; Postemergence, 1000 g ai/ha, 0 to 100 scale, 0 no effect, 100 complete control): 20; Morningglory plant response rating (morningglory; Preemergence, 1000 g ai/ha, visual rating, 0 to 100 scale (0 no effect, 100 complete control)): 55; Morningglory plant response rating (morningglory; preemergence, 250 g ai/ha, visual injury, 0 to 100 scale (0 no effect, 100 complete control)): 0; Barnyardgrass plant response rating (barnyardgrass; [7]): 0; Barnyardgrass plant response rating (barnyardgrass; 125 g ai/ha, scale of 0 to 100, 0 is no effect, 100 is complete control): 30; Plant response rating, Barnyardgrass (barnyardgrass; 250 g ai/ha, scale 0 to 100 (0 no effect, 100 complete control)): 70; Plant response rating, Barnyardgrass (barnyardgrass; [8]): 75; Plant response rating (0 = no effect, 100 = complete control), Velvetleaf (velvetleaf; 62 g ai/ha, preemergence): 20; Plant response rating, Velvetleaf (velvetleaf; [3]): 100; Velvetleaf plant response rating (velvetleaf; Postemergence, scale 0 to 100): 70; Plant response rating, Velvetleaf (velvetleaf; [9]): 70; Velvetleaf plant response rating (velvetleaf; [10]): 100; Plant response rating, Velvetleaf (velvetleaf; [11]): 60; Plant response rating, Velvetleaf (velvetleaf; [6]): 50; Plant response rating (0 = no effect, 100 = complete control), Nutsedge, Yellow (yellow nutsedge; 62 g ai/ha, preemergence): 0; Plant response rating, Nutsedge, Yellow (yellow nutsedge; [3]): 0; Nutsedge, Yellow plant response rating (yellow nutsedge; Postemergence, scale 0 to 100): 30; Plant response rating, Nutsedge, Yellow (yellow nutsedge; [9]): 30; Nutsedge, Yellow plant response rating (yellow nutsedge; [10]): 0; Plant response rating, Nutsedge, Yellow (yellow nutsedge; [11]): 0; Plant response rating, Nutsedge, Yellow (yellow nutsedge; [6]): 0; Plant response rating (0 = no effect, 100 = complete control), Sunflower ([1]; 62 g ai/ha, preemergence): 0; Plant response rating, Sunflower [1, 3]: 20; Sunflower plant response rating [1, 5]: 20; Plant response rating (0 = no effect, 100 = complete control), Cupgrass, Woolly (woolly cupgrass; 62 g ai/ha, preemergence): 0; Plant response rating, Cupgrass, Woolly (woolly cupgrass; [2]): 0; Plant response rating, Cupgrass, Woolly (woolly cupgrass; [3]): 30; Cupgrass, Woolly plant response rating (woolly cupgrass; Postemergence, scale 0 to 100): 60; Plant response rating, Cupgrass, Woolly (woolly cupgrass; [4]): 30; Plant response rating, Cupgrass, Woolly (woolly cupgrass; [9]): 40; Cupgrass, Woolly plant response rating (woolly cupgrass; [10]): 60; Plant response rating, Cupgrass, Woolly (woolly cupgrass; [6]): 30; Plant response rating (0 = no effect, 100 = complete control), Foxtail, Giant (giant foxtail; 62 g ai/ha, preemergence): 20; Plant response rating, Foxtail, Giant (giant foxtail; [2]): 30; Plant response rating, Foxtail, Giant (giant foxtail; [3]): 70; Foxtail, Giant plant response rating (giant foxtail; Postemergence, scale 0 to 100): 40; Plant response rating, Foxtail, Giant (giant foxtail; [4]): 30; Plant response rating, Foxtail, Giant (giant foxtail; [9]): 30; Foxtail, Giant plant response rating (giant foxtail; [10]): 100; Plant response rating, Foxtail, Giant (giant foxtail; [6]): 20

Question: Which results are given for `CCNC(=O)c1ccc(F)c(NC(=O)c2cc(C3(C)CC3)nn2CC)c1` [Compound 300]?
Answer: Plant response rating, Bermudagrass (bermudagrass; 31 g ai/ha, scale 0 to 100, 0 no effect, 100 complete control, last section of Table C (species set of preemergence test)): 80; Plant response rating, Bermudagrass (bermudagrass; 62 g ai/ha, preemergence, scale 0 to 100, 0 no effect, 100 complete control): 95; Plant response rating, Bermudagrass (bermudagrass; [12]): 100; Plant response rating, Bermudagrass (bermudagrass; [13]): 100; Morningglory plant response rating (morningglory; Postemergence, 500 g ai/ha, 0 to 100 scale, 0 no effect, 100 complete control): 80; Plant response rating, Morningglory (morningglory; Postemergence, 2000 g ai/ha, 0 to 100 scale, 0 no effect, 100 complete control): 95; Morningglory plant response rating (morningglory; Preemergence, 2000 g ai/ha, visual rating, 0 to 100 scale (0 no effect, 100 complete control)): 100; Morningglory plant response rating (morningglory; preemergence, 500 g ai/ha, visual injury, 0 to 100 scale (0 no effect, 100 complete control)): 90; Barnyardgrass plant response rating (barnyardgrass; [7]): 35; Barnyardgrass plant response rating (barnyardgrass; 125 g ai/ha, scale 0 to 100 (0 no effect, 100 complete control)): 50; Barnyardgrass plant response rating (barnyardgrass; 250 g ai/ha, scale of 0 to 100, 0 is no effect, 100 is complete control): 90; Plant response rating, Barnyardgrass (barnyardgrass; [8]): 95; Plant response rating, Velvetleaf (velvetleaf; [14]): 5; Plant response rating, Velvetleaf (velvetleaf; [13]): 5; Plant response rating, Nutsedge, Yellow (yellow nutsedge; 31 g ai/ha, scale 0 to 100, last section of Table C, preemergence): 0; Plant response rating, Nutsedge, Yellow (yellow nutsedge; [14]): 0; Plant response rating, Nutsedge, Yellow (yellow nutsedge; [12]): 20; Plant response rating, Nutsedge, Yellow (yellow nutsedge; [13]): 60; Plant response rating, Sunflower [1, 14]: 0; Plant response rating, Sunflower [1, 13]: 5; Plant response rating, Cupgrass, Woolly (woolly cupgrass; [14]): 20; Plant response rating, Cupgrass, Woolly (woolly cupgrass; [12]): 50; Plant response rating, Cupgrass, Woolly (woolly cupgrass; [13]): 60; Plant response rating, Foxtail, Giant (giant foxtail; [14]): 30; Plant response rating, Foxtail, Giant (giant foxtail; [12]): 65; Plant response rating, Foxtail, Giant (giant foxtail; [13]): 100
